Two compounds from ChEMBL document CHEMBL4706695, “Small molecule approaches to treat autoimmune and inflammatory diseases (Part I): Kinase inhibitors” (Bioorg Med Chem Lett, 2021) can be followed below.

pIC50: −log10 of the molar value.

In this experiment the target is Tyrosine-protein kinase BTK (Homo sapiens, UniProt Q06187). The experiment can be described thus: Inhibition of BTK (unknown origin) One-hour enzymatic assay without pre-incubation.
Chain of Tyrosine-protein kinase BTK (Q06187 whole entry): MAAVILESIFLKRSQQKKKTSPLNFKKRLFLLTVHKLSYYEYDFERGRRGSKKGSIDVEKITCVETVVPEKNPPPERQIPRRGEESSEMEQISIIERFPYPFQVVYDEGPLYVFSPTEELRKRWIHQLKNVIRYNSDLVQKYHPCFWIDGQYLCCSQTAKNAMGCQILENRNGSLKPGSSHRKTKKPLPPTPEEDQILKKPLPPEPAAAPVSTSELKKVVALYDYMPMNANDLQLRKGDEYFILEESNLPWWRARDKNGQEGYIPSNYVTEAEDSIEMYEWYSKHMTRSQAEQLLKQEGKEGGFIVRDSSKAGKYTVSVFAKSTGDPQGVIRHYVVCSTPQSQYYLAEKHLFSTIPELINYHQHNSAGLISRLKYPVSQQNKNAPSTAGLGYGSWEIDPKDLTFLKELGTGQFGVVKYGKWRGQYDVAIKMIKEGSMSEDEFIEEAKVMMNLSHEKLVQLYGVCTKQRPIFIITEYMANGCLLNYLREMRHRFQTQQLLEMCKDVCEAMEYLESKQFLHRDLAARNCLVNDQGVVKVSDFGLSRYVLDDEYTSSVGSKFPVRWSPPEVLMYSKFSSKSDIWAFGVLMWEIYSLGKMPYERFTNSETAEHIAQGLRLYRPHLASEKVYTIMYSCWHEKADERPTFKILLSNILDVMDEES

Take `N#CN1CCC[C@@H](n2nc(-c3ccc(Oc4ccc(F)cc4F)cc3)c(C(N)=O)c2N)C1`: the pIC50 (as a rule, the IC50 on a negative log10 scale, so that one unit is a factor of ten) is 9.30.
Consider `C=CC(=O)N1CCC[C@@H](c2ccc(C(N)=O)c3[nH]ccc23)C1` [ELSUBRUTINIB], for which the negative logarithm of the IC50 (pIC50) is 7.48.
